Assay results published in patent US10501479B2, “Benzenesulfonyl-asymmetric ureas and medical uses thereof” (HELSINN HEALTHCARE SA, priority 2016, dated 2019).
pEC50, pIC50: −log10 of the molar value. Where a name gives a salt, the structure may show the parent alone. Read-outs that look alike come from different tables or passages of the source.

Key:
Assay type in all cases: cell-based
[1] = target: T1, recombinant human ghrelin receptor (HEK293/GRLN) (Homo sapiens, UniProt Q92847); assay: Ghrelin inverse agonist potency (EC50) with IP-1 (IP-One HTRF) assay; conditions: IP-1 assay
T1 construct: expressed in transfected cells
Procedure: Evaluation of Ghrelin Inverse Agonist Potency (EC50) with IP-1 Assay:
HEK293 cells stably expressing recombinant human ghrelin receptor (HEK293/GRLN) were used in the IP-One HTRF assay. One day before the test, cells were seeded at a density of 1.5×10^4/well in a Matrigel® coated 384-well plate with 30 μL of complete Dulbecco's Modified Eagle's Medium and incubated at 37° C. in 5% CO2 for 18-22 hours. On the test day, the medium was removed by centrifugation at 600 rpm for 30 seconds, and 20 μL of stimulation buffer containing 1x tested compound was added with Bravo (Agilent technologies). The plate was then incubated at 37° C. 5% CO2 for 1 hour. After the incubation, 5 μL of IP1-d2 and 5 μL of Tb-Cryp were added to all wells using multidrop Combi(Thermo). After additional incubation at room temperature for 1 hour, the plates were read on Envision with 620 and 665 (Perkin Elmer).

[2] = target: T2, GHSR-1a (HEK293/GHSR1a cell line) (Homo sapiens, UniProt Q92847); assay: Ghrelin antagonist potency (IC50) with calcium FLIPR assay, ghrelin 10 nM
T2 construct: expressed in transfected cells; host or cells: HEK293/GHSR1a cell line
In short: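 Potency values were estimated from dose-response curves of relative fluorescence, with calcium followed for 2 minutes after additions at t=20 sec. Agonism was tested with compound alone. Antagonism was tested with compound plus 10 nM ghrelin and scored as a reduction of the ghrelin signal.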

[3] = target: T2, GHSR-1a (HEK293/GHSR1a cell line); assay: Ghrelin agonist potency (EC50) with calcium FLIPR assay; conditions: HEK293/GHSR1a, read-out: Activity EC50/EMax: EC50 (ghrelin agonist potency)
Procedure: Evaluation of Ghrelin Agonist (EC50) and Antagonist Potency (IC50) with Calcium FLIPR Assay:
The intracellular calcium assay was carried out in a 384-well format FLIPR™ (Molecular Device) HEK293/GHSR1a cell line. Cells were seeded 24 hr prior to the experiments at an optimal density per well. Preincubation with selected calcium dye lasted for 30-60 min at room temperature or 37° C. Test compounds, dissolved in DMSO, were added at the appropriate time and incubated for 15 min followed by the addition of ghrelin with FlexStation or FLIPR. Relative fluorescence was monitored by the FLIPR™ Molecular Device. EC50 and IC50 values were estimated from dose-response data using GraphPad Prism software. To check for GHSR-1a agonism, the compound was added at t=20 sec. and the calcium response was followed for 2 minutes. To check for GHSR-1a antagonism, the compound and Ghrelin (10 nM) were added to the cells at t=20 sec. and the calcium response was measured for 2 minutes. The potency of the antagonist was calculated by its ability to reduce the ghrelin response. Dose-response curves were made for relevant antagonists.

[4] = inverse agonist potency, read-out: EC50 (Activity)
[5] = ghrelin antagonist potency, read-out: IC50 (Activity)
[6] = HEK293/GHSR1a, ghrelin 10 nM, read-out: Activity IC50 (ghrelin antagonist potency)
[7] = ghrelin inverse agonist potency, read-out: Activity EC50
[8] = ghrelin antagonist potency, read-out: Activity IC50

T2 sequence (Q92847 whole entry): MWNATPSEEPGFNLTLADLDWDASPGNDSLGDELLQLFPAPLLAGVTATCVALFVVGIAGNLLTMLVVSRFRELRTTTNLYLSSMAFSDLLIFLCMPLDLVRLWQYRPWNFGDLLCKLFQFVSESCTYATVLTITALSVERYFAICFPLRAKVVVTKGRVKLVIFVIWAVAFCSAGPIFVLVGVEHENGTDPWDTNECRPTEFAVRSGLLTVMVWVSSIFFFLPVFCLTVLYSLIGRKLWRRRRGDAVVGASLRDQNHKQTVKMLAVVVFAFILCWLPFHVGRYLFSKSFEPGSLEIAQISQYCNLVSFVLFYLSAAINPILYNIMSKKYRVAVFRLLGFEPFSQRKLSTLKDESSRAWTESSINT
T1 sequence (Q92847 whole entry): as above

C[C@H](NC(=O)Nc1ccc(S(=O)(=O)Nc2ccc(N)nn2)cc1)c1cccc(Cl)c1Cl [H1129, (S)-N-(6-aminopyridazin-3-yl)-4-(3-(1-(2,3-dichlorophenyl)ethyl)ureido) benzenesulfonamide]
pEC50 [1, 4]: 5.61
pIC50 [2, 5]: 5.48

C[C@H](NC(=O)Nc1ccc(S(=O)(=O)Cc2cnc(N)nc2)cc1)c1cccc(Cl)c1Cl [H1130, (S)-1-(4-(((2-aminopyrimidin-5-yl)methyl)sulfonyl)phenyl)-3-(1-(2,3-dichlorophenyl)ethyl)urea]
pEC50 [1, 4]: 5.89
pIC50 [2, 5]: 5.47

CC(NC(=O)Nc1ccc(S(=O)(=O)Cc2ccc(CO)cc2)cc1)c1cccc2ccccc12 (stereo not drawn) [H1132, 1-(4-((4-(hydroxymethyl)benzyl)sulfonyl)phenyl)-3-(1-(naphthalen-1-yl)ethyl)urea]
pEC50 [1, 4]: 6.66
pIC50 [2, 5]: 6.24

CC(NC(=O)Nc1ccc(S(=O)(=O)Nc2ccc(CO)cc2)cc1)c1cccc2ccccc12 (stereo not drawn) [H1133, N-(4-(hydroxymethyl)phenyl)-4-(3-(1-(naphthalen-1-yl)ethyl)ureido) benzenesulfonamide]
pEC50 [1, 4]: 6.77
pIC50 [2, 5]: 6.38

CC(NC(=O)Nc1ccc(S(=O)(=O)Nc2ccc(CO)cc2)cc1)c1ccccc1 (stereo not drawn) [H1141, N-(4-(hydroxymethyl)phenyl)-4-(3-(1-phenylethyl)ureido) benzenesulfonamide]
pEC50 [1, 4]: 6.25
pIC50 [2, 5]: 5.58

CC(NC(=O)Nc1ccc(S(=O)(=O)Nc2ccc3c(c2)CNC3)cc1)c1cccc2ccccc12 (stereo not drawn) [H1155, N-(isoindolin-5-yl)-4-(3-(1-(naphthalen-1-yl)ethyl)ureido) benzenesulfonamide]
pEC50 [1, 4]: 8.30
pIC50 [2, 5]: 8.37

CC(C)NC(=O)Nc1ccc(S(=O)(=O)Cc2ccc3c(c2)CNC3)cc1 [H1178, 1-(4-((isoindolin-5-ylmethyl)sulfonyl)phenyl)-3-isopropylurea]
pEC50 [1, 4]: 5.99
pIC50 [2, 5]: 5.31

CCNC(=O)Nc1ccc(S(=O)(=O)Cc2ccc3c(c2)CNC3)cc1 [H1180, 1-ethyl-3-(4-((isoindolin-5-ylmethyl)sulfonyl)phenyl)urea]
pEC50 [1, 4]: 6.50
pIC50 [2, 5]: 4.83

C[C@H](NC(=O)Nc1ccc(S(=O)(=O)Cc2ccc(COS(=O)(=O)O)cc2)cc1)c1cccc(Cl)c1Cl [H1181, (S)-4-(((4-(3-(1-(2,3-dichlorophenyl)ethyl)ureido)phenyl)sulfonyl)methyl) benzyl hydrogen sulfate]
pEC50 [1, 4]: 6.02
pIC50 [2, 5]: 5.48

O=C(Nc1ccccc1)Nc1ccc(S(=O)(=O)Cc2ccc3c(c2)CNC3)cc1 [H1190, 1-(4-((isoindolin-5-ylmethyl)sulfonyl)phenyl)-3-phenylurea]
pEC50 [1, 4]: 6.50
pIC50 [2, 5]: 6.58

COc1ccc(CNC(=O)Nc2ccc(S(=O)(=O)Cc3ccc4c(c3)CNC4)cc2)cc1 [H1203, 1-(4-((isoindolin-5-ylmethyl)sulfonyl)phenyl)-3-(4-methoxybenzyl)urea]
pEC50 [1, 4]: 6.79
pIC50 [2, 5]: 6.35

CN(Cc1ccccc1)C(=O)Nc1ccc(S(=O)(=O)Cc2ccc3c(c2)CNC3)cc1 [H1204, 1-benzyl-3-(4-((isoindolin-5-ylmethyl)sulfonyl)phenyl)-1-methylurea]
pEC50 [1, 4]: 6.20
pIC50 [2, 5]: 6.16

CC(C)(C)NC(=O)Nc1ccc(S(=O)(=O)Cc2ccc3c(c2)CNC3)cc1 [H1205, 1-(tert-butyl)-3-(4-((isoindolin-5-ylmethyl)sulfonyl)phenyl)urea]
pEC50 [1, 4]: 5.27
pIC50 [2, 5]: 5.01

CC(c1ccccc1)N(C)C(=O)Nc1ccc(S(=O)(=O)Cc2ccc3c(c2)CNC3)cc1 (stereo not drawn) [H1206, 3-(4-((isoindolin-5-ylmethyl)sulfonyl)phenyl)-1-methyl-1-(1-phenylethyl)urea]
pEC50 [1, 4]: 6.60
pIC50 [2, 5]: 6.58

COc1ccc(CNC(=O)Nc2ccc(S(=O)(=O)Cc3ccc4c(c3)CNC4)cc2)nc1 [H1212, 1-(4-((isoindolin-5-ylmethyl)sulfonyl)phenyl)-3-((5-methoxypyridin-2-yl)methyl)urea]
pEC50 [1, 4]: 5.75
pIC50 [2, 5]: 5.51

O=C(NCc1ccsc1)Nc1ccc(S(=O)(=O)Cc2ccc3c(c2)CNC3)cc1 [H1217, 1-(4-((isoindolin-5-ylmethyl)sulfonyl)phenyl)-3-(thiophen-3-ylmethyl)urea]
pEC50 [1, 4]: 5.94
pIC50 [2, 5]: 5.84

CN1Cc2ccc(CS(=O)(=O)c3ccc(NC(=O)NCC(C)(C)C)cc3)cc2C1 [H1228, 1-(4-(((2-methylisoindolin-5-yl)methyl)sulfonyl)phenyl)-3-neopentylurea]
pEC50 [1, 4]: 5.90
pIC50 [2, 5]: 6.12

CC(C)C(C)NC(=O)Nc1ccc(S(=O)(=O)Cc2ccc3c(c2)CN(C)C3)cc1 (stereo not drawn) [H1229, 1-(3-methylbutan-2-yl)-3-(4-(((2-methylisoindolin-5-yl)methyl)sulfonyl)phenyl)urea]
pEC50 [1, 4]: 6.43
pIC50 [2, 5]: 6.54

CCN1Cc2ccc(C(C)(C)S(=O)(=O)c3ccc(NC(=O)NC(C)c4ccccc4)cc3)cc2C1 (stereo not drawn) [H1232, 1-(4-((2-(2-ethylisoindolin-5-yl)propan-2-yl)sulfonyl)phenyl)-3-(1-phenylethyl)urea]
pEC50 [1, 4]: 6.51
pIC50 [2, 5]: < 4.52

CC(NC(=O)Nc1ccc(S(=O)(=O)C(C)c2ccc3c(c2)CN(Cc2ccccc2)C3)cc1)c1ccccc1 (stereo not drawn) [H1233, 1-(4-((1-(2-benzylisoindolin-5-yl)ethyl)sulfonyl)phenyl)-3-(1-phenylethyl)urea]
pEC50 [1, 4]: 6.77
pIC50 [2, 5]: 6.65

CC(C)CNC(=O)Nc1ccc(S(=O)(=O)Cc2ccc3c(c2)CN(C)C3)cc1 [H1236, 1-isobutyl-3-(4-(((2-methylisoindolin-5-yl)methyl)sulfonyl)phenyl)urea]
pEC50 [1, 4]: 6.30
pIC50 [2, 5]: 5.78

CC(NC(=O)Nc1ccc(S(=O)(=O)Cc2ccc3c(c2)CN(C)C3)cc1)C1CC1 (stereo not drawn) [H1244, 1-(1-cyclopropylethyl)-3-(4-(((2-methylisoindolin-5-yl)methyl)sulfonyl)phenyl)urea]
pEC50 [1, 4]: 6.45
pIC50 [2, 5]: 5.89

O=C(NC(=O)c1cc(N2CCOCC2)ccc1Cl)Nc1ccc(S(=O)(=O)Cc2ccc3c(c2)CNC3)cc1 [H1249, 2-chloro-N-((4-((isoindolin-5-ylmethyl)sulfonyl)phenyl)carbamoyl)-5-morpholinobenzamide]
pEC50 [1, 4]: 5.79
pIC50 [2, 5]: 5.48

CCc1ccc(Cl)c(C(=O)NC(=O)Nc2ccc(S(=O)(=O)Cc3ccc(CO)cc3)cc2)c1 [H1255, 2-chloro-5-ethyl-N-((4-((4-(hydroxymethyl)benzyl)sulfonyl)phenyl)carbamoyl)benzamide]
pEC50 [3]: < 4.52
pIC50 [2, 6]: 5.63

CCc1ccc(Cl)c(C(=O)NC(=O)Nc2ccc(S(=O)(=O)Nc3ccc4c(c3)CNC4)cc2)c1 [H1259, 2-chloro-5-ethyl-N-((4-(N-(isoindolin-5-yl)sulfamoyl)phenyl)carbamoyl) benzamide]
pEC50 [3]: < 4.52
pIC50 [2, 6]: 6.57

CC(NC(=O)Nc1ccc(S(=O)(=O)N2CC3CNCC3C2)cc1)c1ccccc1 (stereo not drawn) [H1277, 1-(4-((hexahydropyrrolo[3,4-c]pyrrol-2(1H)-yl)sulfonyl)phenyl)-3-(1-phenylethyl)urea]
pEC50 [3]: < 4.52
pIC50 [2, 6]: 5.06

CC(NC(=O)Nc1ccc(S(=O)(=O)Cc2ccncc2)cc1)c1ccccc1 (stereo not drawn) [H1280, 1-(1-phenylethyl)-3-(4-((pyridin-4-ylmethyl)sulfonyl)phenyl)urea]
pEC50 [3]: < 4.52
pIC50 [2, 6]: 6.04

COc1ccc(C(C)NC(=O)Nc2ccc(S(=O)(=O)Cc3ccc4c(c3)CNC4)cc2)cc1Cl (stereo not drawn) [H1477, 1-(1-(3-chloro-4-methoxyphenyl)ethyl)-3-(4-((isoindolin-5-ylmethyl)sulfonyl)phenyl)urea]
pEC50 [1, 7]: 7.76
pIC50 [2, 8]: 7.43

CC(c1ccccc1)N(O)C(=O)Nc1ccc(S(=O)(=O)Cc2ccc3c(c2)CNC3)cc1 (stereo not drawn) [H1526, 1-hydroxy-3-(4-((isoindolin-5-ylmethyl)sulfonyl)phenyl)-1-(1-phenylethyl)urea]
pEC50 [1, 7]: 7.66
pIC50 [2, 8]: 7.50

CC(c1ccccc1)N(O)C(=O)Nc1ccc(S(=O)(=O)Cc2ccc3c(c2)CN(C)C3)cc1 (stereo not drawn) [H1527, 1-hydroxy-3-(4-(((2-methylisoindolin-5-yl)methyl)sulfonyl)phenyl)-1-(1-phenylethyl)urea]
pEC50 [1, 7]: 7.47
pIC50 [2, 8]: 6.89
